# Results from article PMC8592624, “Rapid and improved oral absorption of N-butylphthalide by sodium cholate-appended liposomes for efficient ischemic stroke therapy” (Drug Delivery, 2021).
# Columns and labels:
# [1] = In vitro drug release (dialysis method); assay type: physicochemical
# Procedure: The release curves of the formulations were obtained using a dialysis method (Zhang et al., [2011]). […] The following procedures were performed as above.
# Pharmacokinetics in rats = assay type: in vivo, Sprague-Dawley rats
# Procedure: Male Sprague-Dawley rats (250 ± 20 g) were obtained from the laboratory animal center of Zhengzhou University (Zhengzhou, China). The animal experiments were conducted in accordance with the Regional Ethics Committee and protocols from the Institutional Animal Care and Use Committee of Zhengzhou University. Rats were fasted overnight with free access of water before the pharmacokinetic studies. To begin with, rats were randomly assigned into three groups. […] 0.5 mL of blood was taken from rats by retro-orbital sinus at 0.083, 0.25, 0.5, 1, 2, 3, 4, 6, 8, and 10 h after administration, respectively. The concentration of NBP in plasma was determined by HPLC after suitable processing. Briefly, 300 µL methanol was mixed with 100 µL of plasma and the resultant suspension was centrifuged (12,000 rpm, 10 min). The supernatant obtained was analyzed by a validated HPLC method (Supplementary Table 2). The pharmacokinetic parameters were obtained using DAS 3.0 software (Mathematical Pharmacology Professional Committee of China) and were presented as mean ± SD. The absolute bioavailability (Fa) and the relative bioavailability (Fr) were calculated by the following equations, respectively: (4) Fa (%)=AUC0−t, oralDosei.v/AUC0−t, i.vDoseoral (5) Fr (%)=AUC0−t, formulation/AUC0−t, NBP suspension
# Where AUC0−t represents the area under the pharmacokinetic curve throughout the study.
# [2] = Biodistribution in rats after oral administration; assay type: in vivo; details: p.o., 30 mg/kg, during 2 h
# Procedure: Before the start of the experiment, rats were fasted while allowed to drink freely overnight. […] Rats were sacrificed 0.083, 0.25, 0.5, 1 and 2 h post-administration, and subsequently, the vital organs involving heart, liver, spleen, kidney, lung as well as brain were harvested and processed by following procedures. In brief, the harvest tissues were weighed and homogenized in cold saline. The obtained tissue lysates (100 μL) was methanol precipitated and centrifuged (4 °C, 15 min) followed by injection of the supernatant (50 μL) into HPLC. The NBP concentration in each tissue sample was calculated from the respective standard curves. […] Re= AUC0−t, tissue, formulation/AUC0−t, tissue, NBP suspension (Wang et al., [2014]) Ce=Cmax, tissue, formulation/Cmax, tissue, NBP suspension (Wang et al., [2021])
# [3] = test system: cerebral ischemia/reperfusion (I/R) model; assay: Cerebral ischemia/reperfusion (I/R) model, middle cerebral artery occlusion (MCAO); assay type: in vivo; details: MCAO rats, 30 mg/kg p.o.
# Procedure: Rats (280-320 g) were divided into five groups randomly (n = 10 per group): […] After lateral neck incision, the internal carotid artery, right common carotid artery […] and external carotid artery were exposed. A surgical nylon suture was gently advanced to occlude MCA until slight resistance was felt (18-20 mm from MCA bifurcation). 1.5 hours post MCAO, reperfusion was inducted by taking out the suture and the rats were immediately orally given the predetermined formulations. The sham operated group received the same surgery in the […] of the MCAO and drug treatment. The core body temperature was kept constant (37 ± 0.5 °C) for 24 h post reperfusion. Neurological deficit of rats was then assessed by the blinded Longa's method. […] The cerebral infarct area (White) was analyzed by Image-J and represented as a percentage of the total brain area. Histological alterations of brain samples from the remaining rats were analyzed via hematoxylin and esosin (H&E) staining and then observed under a microscope. The levels of malondialdehyde (MDA), superoxide dismutase (SOD) and glutathione peroxidase (GSH-Px) in brain lysates were determined 24 h after reperfusion according to the protocols of the specific agent kit (Servicebio, Wuhan, China).
# [4] = i.v., NBP solution, 30 mg/kg, n = 5
smiles,measurement,setting,value
"CCCCC1OC(=O)c2ccccc21 (stereo not drawn) [NBP, N-butylphthalide]",cumulative release during 12 h,"[1]; SGF pH 1.2 2 h then phosphate buffer pH 6.8, 37 °C",6.79 ± 0.99%
same,cumulative drug release within 2 h,"[1]; SGF pH 1.2, 37 °C, 100 rpm",about 6%
same,24 h cumulative drug release amount,"[1]; SGF pH 1.2 then phosphate buffer pH 6.8, 37 °C",6.79 ± 0.99%
same,Fa (absolute bioavailability),"Pharmacokinetics in rats; i.v., 30 mg/kg (reference)",100%
same,AUC0-t,Pharmacokinetics in rats; [4],7590 ± 780 ng·h/mL
same,CLz,Pharmacokinetics in rats; [4],44.2 ± 4.17 mL/min/kg
same,Cmax,Pharmacokinetics in rats; [4],25510 ± 3460 ng/mL
same,tmax,Pharmacokinetics in rats; [4],4.98 min
same,Fa (absolute bioavailability),"Pharmacokinetics in rats; p.o., 30 mg/kg",21.7%
same,Fr (relative bioavailability to NBP suspension),"Pharmacokinetics in rats; p.o., 30 mg/kg",100%
same,time at which Cmax was observed on plasma curve,"Pharmacokinetics in rats; p.o., 30 mg/kg, Figure 3(B)",2 h
same,AUC0-t,"Pharmacokinetics in rats; p.o., 30 mg/kg, n = 5",1650 ± 320 ng·h/mL
same,Cmax,"Pharmacokinetics in rats; p.o., 30 mg/kg, n = 5",360 ± 130 ng/mL
same,tmax,"Pharmacokinetics in rats; p.o., 30 mg/kg, n = 5",61.2 ± 18.6 min
same,CLz,"Pharmacokinetics in rats; p.o., 30 mg/kg, n = 5, apparent clearance (CL/F)",201.8 ± 62.7 mL/min/kg
same,organ of main accumulation,[2],mainly in the lung
same,neurological score compared with I/R group,[3]; 24 h,no significant difference
same,infarct volume,"[3]; TTC staining, percentage of total brain area",27.66 ± 2.59%
